7 molecules from ChEMBL document CHEMBL1134603 (J Med Chem, 2001) can be followed below.

As a reminder, the EC50 is the concentration giving half of the maximal effect. A lower EC50 goes with higher potency in that assay. The IC50 is the concentration at which inhibition is half-maximal. A low value points to greater potency.

Assay [1] concerns the target T1, Human immunodeficiency virus type 1 reverse transcriptase (Human immunodeficiency virus 1, UniProt Q72547). Nature of the assay: Inhibition of HIV-1 reverse transcriptase at 37 degree Centigrade.
The target in assay [2] is T1, Human immunodeficiency virus type 1 reverse transcriptase. Nature of the assay: Inhibition of HIV-1 reverse transcriptase at 25 degree Centigrade.

`Cc1c(Oc2ccccc2)n(COCCO)c(=O)[nH]c1=O`: the EC50 in assay [1] was determined as 85 µM.
On the same count and under the same terms, the figure for `Cc1c(Sc2ccccc2)[nH]c(=O)[nH]c1=O` is > 250 µM.
Still for that read-out and setting: the figure for `Cc1c(Sc2ccccc2)n(C)c(=O)[nH]c1=O` is > 150 µM; for `Cc1c(Cc2ccccc2)n(COCCO)c(=O)[nH]c1=O` it is 23 µM.
For `CCc1ccnc2c1N(C)C(=O)c1cccnc1N2CC`, in assay [2], the IC50 came to 0.11 µM.
In turn, `CCOCn1c(Cc2ccccc2)c(C(C)C)c(=O)[nH]c1=O` [EMIVIRINE] showed an EC50 in assay [1] of 0.004 µM. This counts as single-digit nanomolar.
The same measure, in the same setting: the figure for `Cc1c(Sc2ccccc2)n(COCCO)c(=O)[nH]c1=O` [HEPT] is 7 µM.
